{
  "source": "patent US6203976A",
  "about": "“Methods of preparing compositions comprising chemicals capable of transcriptional modulation” (OSI Pharmaceuticals, Inc., priority 1994, dated 2001)",
  "settings_in_all_cases": "Actinomycin D 25 microg/ml",
  "key": {"[1]": {"tested_on": "H-ras reporter (H21 cells)", "assay": "Luciferase signal half-life after Actinomycin D, H21 cells", "type": "cell-based", "experimental": "(§1) When screening for inhibitors rather than inducers of transcription, the half-life of the reporter molecule becomes a crucial parameter in determining the minimal incubation time that would be necessary to allow enough decay of reporter molecules so that the inhibition of their synthesis became visible. The CMV reporter cell line was therefore tested for the time dependency of luciferase activity after treatment of the cells with Actinomycin D, an inhibitor of transcription. This experiment measured the combined half-life of luciferase mRNA and of the luciferase protein and compares the rate of signal decay of the CMV reporter to three other well characterized genes; H-ras, K-ras and c-erbB2.\n(§2) Cells derived from clones CM1 (CMV), K2 (K-ras), H21 (H-ras) and N2 (c-erbB2) were seeded into 96-well microtiter plates and incubated overnight. At time 0, Actinomycin D (25 microg/ml) was added. At the times indicated in FIG. 22, cells were washed with PBS and luciferase activity of Actinomycin-treated cells determined as described in Materials and Methods. The signal from the treated cells was compared to the luciferase activity of untreated controls."}, "[2]": {"tested_on": "CMV reporter (CM1 cells)", "assay": "Luciferase signal half-life after Actinomycin D, CM1 cells", "type": "cell-based, human", "text": "Hep3B hepatocellular carcinoma cells were transfected by electroporation with 75 micrograms of pCM106 which had been linearized by a single ScaI cut within the vector backbone. Neomycin resistant colonies were isolated and tested for luciferase activity. Luciferase positive, neomycin resistant clones were subjected to Southern blot analysis (see below). The best clone, producing the most luciferase activity from a single, correctly integrated vector was selected for use as the CMV reporter cell line in the high throughput screen (this clone was designated CM1).\nas §1, with “The CMV reporter cell line was therefore tested for the time dependency of luciferase activity after treatment of the cells with Actinomycin D, an inhibitor of transcription.” left out\nas §2, with “At time 0, Actinomycin D (25 microg/ml) was added.” left out, “The signal from the treated cells was compared to the luciferase activity of untreated controls.” left out"}, "[3]": {"tested_on": "K-ras reporter (K2 cells)", "assay": "Luciferase signal half-life after Actinomycin D, K2 cells", "type": "cell-based, human", "text": "(§3) 75 micrograms of the pKRAS106 plasmid was linearized by a single restriction endonuclease cleavage within the vector backbone and electroporated into SW480 human colon carcinoma cells. Neomycin resistant clones were isolated and tested for luciferase activity. Clones testing positive for luciferase production were subjected to Southern blot analysis (see below). The best clone (producing the highest signal and carrying a single intact copy of the transfected DNA) was utilized for high throughput screening (designated clone K2).\nas §1, with “The CMV reporter cell line was therefore tested for the time dependency of luciferase activity after treatment of the cells with Actinomycin D, an inhibitor of transcription.” left out\nas §2, with “At time 0, Actinomycin D (25 microg/ml) was added.” left out, “The signal from the treated cells was compared to the luciferase activity of untreated controls.” left out"}, "[4]": {"tested_on": "neu (c-erbB2) reporter (N2 cells)", "assay": "Luciferase signal half-life after Actinomycin D, N2 cells", "type": "cell-based, human", "text": "as §3, with “pNEU106” for “pKRAS106”, “HTB30” for “SW480”, “breast” for “colon”, “N2).” for “K2).”\nas §1, with “The CMV reporter cell line was therefore tested for the time dependency of luciferase activity after treatment of the cells with Actinomycin D, an inhibitor of transcription.” left out\nas §2, with “At time 0, Actinomycin D (25 microg/ml) was added.” left out, “The signal from the treated cells was compared to the luciferase activity of untreated controls.” left out"}},
  "note": "Starred links: 1 amine or outer side, 2 acyl side, 3 side chain; linkers in the order of their positions; H or OH if unused. Positions of bridges follow the written chain, without caps; N, C: chain ends. Non-standard residues stand in square brackets, D forms with d. Residues, ends and D or L forms follow the SMILES beside them. Chains are numbered I, II in the order given. Actinocin(9to1) = Cc1c2oc3c(C)ccc(C(=O)[*:1])c3nc-2c(C(=O)[*:2])c(N)c1=O; NMeV = CN[C@H](C(=O)O)C(C)C; Sar = CNCC(=O)O",
  "data": [
    {"compound": "Cc1c2oc3c(C)ccc(C(=O)N[C@@H]4C(=O)N[C@H](C(C)C)C(=O)N5CCC[C@H]5C(=O)N(C)CC(=O)N(C)[C@@H](C(C)C)C(=O)O[C@@H]4C)c3nc-2c(C(=O)N[C@@H]2C(=O)N[C@H](C(C)C)C(=O)N3CCC[C@H]3C(=O)N(C)CC(=O)N(C)[C@@H](C(C)C)C(=O)O[C@@H]2C)c(N)c1=O", "note": "[Actinomycin D] (I: T[dV]P[Sar][NMeV] / II: T[dV]P[Sar][NMeV]; ester I:1-I:C, II:1-II:C; linker I:N-II:N via Actinocin(9to1))", "values": [
      {"measurement": "Signal Halflife", "setting": "[1]", "result": 10, "unit": "h"},
      {"measurement": "Signal Halflife", "setting": "[2]", "result": 6.5, "unit": "h"},
      {"measurement": "Signal Halflife", "setting": "[3]", "result": 6.5, "unit": "h"},
      {"measurement": "Signal Halflife", "setting": "[4]", "result": 3, "unit": "h"}
    ]}
  ]
}
